In PubChem BioAssay AID248 (DTP/NCI, 2004):
“And” between values parts separate entries of the source, which are not always exact repeats. Equal entries are not always repeated. Toxic doses and inconclusive results are not listed. No stated cut-off is given here; in the data, active means T/C of 150% or more; inactive means T/C below 125%.

System: L1210 leukemia ip in BDF1 mice, survival T/C
Test: NCI In Vivo Anticancer Drug Screen. Data for tumor model L1210 Leukemia (intraperitoneal) in B6D2F1 (BDF1) mice
Settings: endpoint: mean survival time, higher = longer survival
Summary of the method: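 Survival endpoint. Drug-treated group vs vehicle group, expressed as T divided by C. Tumor passaged by transplantation.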

[1] = dose: 50.0 mg/kg/injection, schedule: Q01DX009 (ip), vehicle: Klucel (hydroxypropylcellulose) (HPC)
[2] = dose: 100.0 mg/kg/injection, schedule: Q01DX009 (ip), vehicle: Klucel (hydroxypropylcellulose) (HPC)
[3] = dose: 100.0 mg/kg/injection, schedule: Q04DX003 (ip), vehicle: Klucel (hydroxypropylcellulose) (HPC)
[4] = dose: 200.0 mg/kg/injection, schedule: Q04DX003 (ip), vehicle: Klucel (hydroxypropylcellulose) (HPC)
[5] = dose: 100.0 mg/kg/injection, schedule: Q01DX001 (ip), vehicle: carboxymethylcellulose (CMC)
[6] = dose: 200.0 mg/kg/injection, schedule: Q01DX001 (ip), vehicle: carboxymethylcellulose (CMC)
[7] = dose: 400.0 mg/kg/injection, schedule: Q01DX001 (ip), vehicle: carboxymethylcellulose (CMC)
[8] = dose: 100.0 mg/kg/injection, schedule: Q04DX003 (ip), vehicle: water
[9] = dose: 200.0 mg/kg/injection, schedule: Q04DX003 (ip), vehicle: water
[10] = dose: 100.0 mg/kg/injection, schedule: Q01DX001 (ip), vehicle: saline with Tween-80
[11] = dose: 200.0 mg/kg/injection, schedule: Q01DX001 (ip), vehicle: saline with Tween-80
[12] = dose: 400.0 mg/kg/injection, schedule: Q01DX001 (ip), vehicle: saline with Tween-80
[13] = dose: 100.0 mg/kg/injection, schedule: Q01DX009 (ip), vehicle: saline with Tween-80
[14] = dose: 200.0 mg/kg/injection, schedule: Q01DX009 (ip), vehicle: saline with Tween-80

Measured: T/C

O=[N+]([O-])/C=C/c1c(Cl)cccc1Cl
inactive: dose: 6.25 mg/kg/injection, schedule: Q01DX005 (ip), vehicle: other 108 % of control | dose: 12.5 mg/kg/injection, schedule: Q01DX005 (ip), vehicle: other 106 % of control | dose: 25.0 mg/kg/injection, schedule: Q01DX005 (ip), vehicle: other 93 % of control | dose: 50.0 mg/kg/injection, schedule: Q01DX005 (ip), vehicle: saline with Tween-80 101 % of control | [1] 95 % of control | [2] 93 % of control | [3] 94 % of control | [4] 100 % of control | dose: 400.0 mg/kg/injection, schedule: Q04DX003 (ip), vehicle: Klucel (hydroxypropylcellulose) (HPC) 103 % of control

COC(=O)C1/C(=C/c2ccccc2)C(=O)c2ccccc21 (configuration not stated)
inactive: dose: 100.0 mg/kg/injection, schedule: Q04DX002 (ip), vehicle: saline with Tween-80 87 % of control | dose: 200.0 mg/kg/injection, schedule: Q04DX002 (ip), vehicle: saline with Tween-80 87 % of control | dose: 400.0 mg/kg/injection, schedule: Q04DX002 (ip), vehicle: saline with Tween-80 94 % of control

CC1CN=C(c2ccc(NC(=O)NCCCCCCCCCCCCNC(=O)Nc3ccc(C4=NCC(C)N4)cc3)cc2)N1 (configuration not stated)
inactive: dose: 12.5 mg/kg/injection, schedule: Q01DX Z (ip), vehicle: carboxymethylcellulose (CMC) 95 % of control | dose: 125.0 mg/kg/injection, schedule: Q01DX Z (ip), vehicle: carboxymethylcellulose (CMC) 104 % of control

C=CCN1C(=O)C2C3C=CC(C3)C2C1=O (configuration not stated)
inactive: dose: 6.0 mg/kg/injection, schedule: Q04DX002 (ip), vehicle: Klucel (hydroxypropylcellulose) (HPC) 114 % of control | dose: 25.0 mg/kg/injection, schedule: Q04DX002 (ip), vehicle: Klucel (hydroxypropylcellulose) (HPC) 114 % of control | dose: 50.0 mg/kg/injection, schedule: Q04DX002 (ip), vehicle: Klucel (hydroxypropylcellulose) (HPC) 117 % of control | dose: 100.0 mg/kg/injection, schedule: Q04DX002 (ip), vehicle: Klucel (hydroxypropylcellulose) (HPC) 97 % of control

Cc1cccc(NC(=S)N(CCC#N)C2CCCCC2)c1
inactive: [5] 95 % of control | [6] 90 % of control | [7] 101 % of control

O=C1C(Br)=CC(=C2C=C(Br)C(=O)C(Br)=C2)C=C1Br
inactive: [1] 104 % of control | [2] 117 % of control | [3] 96 % of control | dose: 200.0 mg/kg/injection, schedule: Q01DX009 (ip), vehicle: Klucel (hydroxypropylcellulose) (HPC) 104 % of control | [4] 108 % of control

COc1ccc(CCNC(=O)Cc2cc(OCc3ccccc3)c(OC)cc2[N+](=O)[O-])cc1OC
inactive: [8] 90 % of control | dose: 200.0 mg/kg/injection, schedule: Q01DX001 (ip), vehicle: water 91 % of control | [9] 91 % of control | dose: 400.0 mg/kg/injection, schedule: Q01DX001 (ip), vehicle: water 96 % of control | dose: 400.0 mg/kg/injection, schedule: Q04DX003 (ip), vehicle: water 91 % of control

C=CCCCCCCCCCC(CCCCC)C(=O)O (configuration not stated)
inactive: [10] 100 % of control | [11] 94 % of control | [12] 92 % of control

Cc1cnc(C#N)c(-n2ccnc2)n1
inactive: dose: 50.0 mg/kg/injection, schedule: Q01DX009 (ip), vehicle: water 107 % of control | dose: 100.0 mg/kg/injection, schedule: Q01DX009 (ip), vehicle: water 94 % of control | [8] 108 % of control | dose: 200.0 mg/kg/injection, schedule: Q01DX009 (ip), vehicle: water 92 % of control | [9] 98 % of control

CCCCC[C@H](O)/C=C/[C@@H]1[C@@H](C/C=C\CCCC(=O)O)[C@@H](O)C[C@H]1O
inactive: dose: 0.25 mg/kg/injection, schedule: Q#A X020 (ip), vehicle: saline 98 % of control | dose: 0.5 mg/kg/injection, schedule: Q#A X020 (ip), vehicle: saline 96 % of control | dose: 1.0 mg/kg/injection, schedule: Q#A X020 (ip), vehicle: saline 101 % of control | dose: 2.0 mg/kg/injection, schedule: Q#A X020 (ip), vehicle: saline 104 % of control | dose: 5.0 mg/kg/injection, schedule: Q04DX002 (ip), vehicle: saline 96 % of control | dose: 10.0 mg/kg/injection, schedule: Q04DX002 (ip), vehicle: saline 96 % of control | dose: 20.0 mg/kg/injection, schedule: Q04DX002 (ip), vehicle: saline 88 % of control

O=S(=O)(O)SCCNC1CCC(NCCSS(=O)(=O)O)CC1 (configuration not stated)
inactive: dose: 100.0 mg/kg/injection, schedule: Q04DX003 (ip), vehicle: saline 105 % of control | dose: 200.0 mg/kg/injection, schedule: Q04DX003 (ip), vehicle: saline 116 % of control | dose: 400.0 mg/kg/injection, schedule: Q04DX003 (ip), vehicle: saline 114 % of control

CCCCNC(=O)OCC
inactive: dose: 50.0 mg/kg/injection, schedule: Q01DX001 (ip), vehicle: carboxymethylcellulose (CMC) 102 % of control | dose: 50.0 mg/kg/injection, schedule: Q01DX009 (ip), vehicle: saline with Tween-80 90 % of control | dose: 88.0 mg/kg/injection, schedule: Q01DX001 (ip), vehicle: carboxymethylcellulose (CMC) 104 % of control and 92 % of control | [5] 98 % of control | [13] 95 % of control | dose: 133.0 mg/kg/injection, schedule: Q01DX001 (ip), vehicle: carboxymethylcellulose (CMC) 93 % of control and 92 % of control | [6] 93 % of control and 92 % of control | [14] 93 % of control | dose: 300.0 mg/kg/injection, schedule: Q01DX001 (ip), vehicle: carboxymethylcellulose (CMC) 96 % of control and 106 % of control | [7] 102 % of control

CCCCCCCCCCCCCCCCCCOc1ccccc1
inactive: dose: 100.0 mg/kg/injection, schedule: Q01DX009 (sc), vehicle: olive oil, sesame oil, peanut oil 94 % of control | dose: 100.0 mg/kg/injection, schedule: Q04DX003 (sc), vehicle: olive oil, sesame oil, peanut oil 95 % of control | dose: 200.0 mg/kg/injection, schedule: Q01DX009 (sc), vehicle: olive oil, sesame oil, peanut oil 99 % of control | dose: 200.0 mg/kg/injection, schedule: Q04DX003 (sc), vehicle: olive oil, sesame oil, peanut oil 101 % of control | dose: 400.0 mg/kg/injection, schedule: Q01DX009 (sc), vehicle: olive oil, sesame oil, peanut oil 94 % of control | dose: 400.0 mg/kg/injection, schedule: Q04DX003 (sc), vehicle: olive oil, sesame oil, peanut oil 108 % of control

Oc1ccc2[nH]c3c(c2c1)C[P+](Cc1cccc2ccccc12)(c1ccccc1)CC3 (configuration not stated)
inactive: dose: 100.0 mg/kg/injection, schedule: Q01DX001 (ip), vehicle: Klucel (hydroxypropylcellulose) (HPC) 98 % of control | dose: 200.0 mg/kg/injection, schedule: Q01DX001 (ip), vehicle: Klucel (hydroxypropylcellulose) (HPC) 93 % of control | dose: 400.0 mg/kg/injection, schedule: Q01DX001 (ip), vehicle: Klucel (hydroxypropylcellulose) (HPC) 96 % of control

C=CCCCCCCCCC(=O)O
inactive: dose: 100.0 mg/kg/injection, schedule: Q01DX009 (ip), vehicle: other 104 % of control | dose: 100.0 mg/kg/injection, schedule: Q04DX002 (ip), vehicle: other 87 % of control | dose: 200.0 mg/kg/injection, schedule: Q01DX009 (ip), vehicle: other 93 % of control | dose: 200.0 mg/kg/injection, schedule: Q04DX002 (ip), vehicle: other 112 % of control | dose: 400.0 mg/kg/injection, schedule: Q01DX009 (ip), vehicle: other 89 % of control

O=C(Nc1ccccc1)C(Cl)Cl
inactive: [13] 96 % of control | [14] 91 % of control | dose: 400.0 mg/kg/injection, schedule: Q01DX009 (ip), vehicle: saline with Tween-80 96 % of control

CSc1nc(N)cc(NCc2ccccc2)n1
inactive: [10] 93 % of control | [11] 95 % of control | [12] 100 % of control

CCC1(C)CCC2(C)C(CCC3C2CCCC3(C)C(=O)O)C1 (configuration not stated)
inactive: dose: 12.5 mg/kg/injection, schedule: Q04DX002 (ip), vehicle: saline with Tween-80 96 % of control | dose: 25.0 mg/kg/injection, schedule: Q04DX002 (ip), vehicle: saline with Tween-80 96 % of control | dose: 50.0 mg/kg/injection, schedule: Q04DX002 (ip), vehicle: saline with Tween-80 89 % of control
